From patent US20220218712A1, “TREATMENT OF ALZHEIMER'S DISEASE” (Saint Louis University, priority 2019, published 2022)

Experiments:
SAMP8 mice [1] = assay: Novel Object Recognition Protocol Test (NORPT); type: in vivo, mouse; settings: 12 month-old SAMP8 mice, 1 mg/kg IP every 48 hours for 5 weeks
Experimental: FIG. 1 depicts the effects of a selective A3AR agonist, MRS5980, on learning and memory in 12 month-old SAMP8 mice. The selective A3AR agonist, MRS5980 (1 mg/kg, IP) or vehicle (saline) was given every 48 hours for 5 weeks starting at 12 months of age. Behavioral testing began after 3 weeks of treatment. NORPT—the Novel Object Recognition Protocol Test is a memory task that involves the hippocampus when, as performed herein, the retention interval is 24 hours after initial exposure to the two like objects. Mice received three 5 minutes habituation trials in an empty apparatus separated by 2 hours, the day prior to entry of the objects. During the training session, the mouse was exposed to two similar objects (plastic frogs) which it was allowed to examine for 5 minutes. The apparatus and the objects were cleaned between each trial to remove odor cures. Twenty-four hours later, the mouse was exposed to one of the original objects and a new novel object (plastic bird) and the time spent examining the objects was recorded. The results are expressed as Discrimination index=(Total new−Total old)/Total new+Total old)]. The novel object was made out of the same material as the original object and of the same size, but a different shape. […] Number of attempts before first successful avoidance of the shock in T-maze and retention (memory) for the T-maze one-week later was also determined. […]

SAMP8 mice [2] = assay: T-maze shock avoidance, acquisition and one-week retention; type: in vivo, mouse; settings: 12 month-old SAMP8 mice, 1 mg/kg IP every 48 hours for 5 weeks
Experimental: FIG. 1 depicts the effects of a selective A3AR agonist, MRS5980, on learning and memory in 12 month-old SAMP8 mice. The selective A3AR agonist, MRS5980 (1 mg/kg, IP) or vehicle (saline) was given every 48 hours for 5 weeks starting at 12 months of age. Behavioral testing began after 3 weeks of treatment. NORPT—the Novel Object Recognition Protocol Test is a memory task that involves the hippocampus when, as performed herein, the retention interval is 24 hours after initial exposure to the two like objects. Mice received three 5 minutes habituation trials in an empty apparatus separated by 2 hours, the day prior to entry of the objects. During the training session, the mouse was exposed to two similar objects (plastic frogs) which it was allowed to examine for 5 minutes. The apparatus and the objects were cleaned between each trial to remove odor cures. Twenty-four hours later, the mouse was exposed to one of the original objects and a new novel object (plastic bird) and the time spent examining the objects was recorded. The results are expressed as Discrimination index=(Total new−Total old)/Total new+Total old)]. The novel object was made out of the same material as the original object and of the same size, but a different shape. The underlying concept of the NORPT is based on the tendency of mice to spend more time exploring new objects than familiar ones. Thus, the greater the retention/memory at 24 hours, the more time spent with the new object the higher the discrimination. […] Number of attempts before first successful avoidance of the shock in T-maze and retention (memory) for the T-maze one-week later was also determined. Retention was defined as number of trial to successfully avoid the shock 5 out of 6 consecutive trials. […] ANOVA followed by pairwise Tukey's post hoc test. Means±SEM; n=6-8/group; **p<0.01.

[3] = vs old vehicle treated controls

With `CNC(=O)[C@@]12C[C@@H]1[C@@H](n1cnc3c(NC)nc(C#Cc4ccc(Cl)s4)nc31)[C@H](O)[C@@H]2O` [MRS5980] the “Discrimination index (memory at 24 hours) in NORPT” value (SAMP8 mice [1]; old treated mice vs young mice) was “no difference between the young mice and the old A3 AR treated mice”, the “Discrimination index (memory at 24 hours) in NORPT” value (SAMP8 mice [1]; retention interval 24 hours, vs vehicle treated controls, **p<0.01) was “significantly better memory than vehicle treated controls” and the “T-maze learning and retention” value (SAMP8 mice [2]; old treated mice vs young vehicle treated controls) was “no difference between the young vehicle treated controls and the old A3AR treated mice”. For the same compound, the “Number of attempts before first successful avoidance of the shock in T-maze (learning)” value (SAMP8 mice [2]; [3]) was “learned and remembered the T-maze better than the old vehicle treated controls” and the “Retention (memory) for the T-maze one-week later, trials to avoid the shock 5 out of 6 consecutive trials” value (SAMP8 mice [2]; [3]) was “remembered the T-maze better than the old vehicle treated controls”.
